Results from patent US20260071220A1, “CONJUGATE OF NUCLEOTIDE ANALOG-CONTAINING DOUBLE-STRANDED RNAI ANALOG” (BaseCure Therapeutics LLC, priority 2022, published 2026).
“And” between values parts separate entries of the source, which are not always exact repeats. Equal entries are not always repeated. In the oligonucleotide strings, read from the 5' end, every base follows the letter of its sugar. An asterisk marks phosphorothioate; unmarked linkages are phosphodiester. Other units and linkages are bracketed, terminal groups are in braces. A string of capitals states the bases alone. {D01} = GalNAc ligand D01, attached to sense strand by a phosphodiester bond; m = 2'-O-methyl; f = 2'-fluoro

Tests used:
[1] = tested on: HEK BLUE hTLR8; test: Cell activity detection (CellTiter-Glo) in hTLR8 cells; assay type: cell-based, human; conditions: 24 h, maximum concentration 200 nM, read-out: CC50
Experimental: (§1) 1) The conjugate of the present invention was diluted to a concentration that was 20 times a final concentration, the diluted conjugate was mixed with RNAiMAX-OPTI MEM (RNAiMAX:OPTI MEM=3:47) at a ratio of 1:1 and incubated for 15 min at room temperature.
(§2) 2) 10 μL of incubated conjugate of the present invention was added into a corresponding cell plate, with 10 concentrations in total, a maximum concentration being 200 nM, and double duplicated wells for each concentration.
(§3) 4) 90 μL of cells were seeded into a 96-well plate with the conjugate at the density of 50,000 cells/well.
(§4) 5) The conjugate of the present invention and the cells were co-incubated for 24 h in an incubator under the conditions of 37° C. and 5% CO2.
(§5) 8) Cell activity detection: the operation was carried out according to the method in the Celltiter-Glo specification, and a chemiluminescence signals (RLU) were detected using the multifunctional microplate reader Flexstation III.
(§6) Compound activity: the OD650 values were analyzed using GraphPad Prism software, and a dose effect curve of the compound was fit, and the EC50 value of the compound was calculated. Cell activity detection: the calculation formula of cell activity % was as follows. The cell activity % value was analyzed using GraphPadPrism software, the dose effect curve of the compound was fit, and the CC50 value of the compound on cell was calculated.

[2] = tested on: HEK BLUE hTLR3; test: Cell activity detection (CellTiter-Glo) in hTLR3 cells; assay type: cell-based, human; conditions: 24 h, maximum concentration 200 nM, read-out: CC50
Experimental: as §1, §2, §3, §4, §5, §6

[3] = biological target: T1, hTLR3 (Homo sapiens, UniProt O15455); test: Agonistic activity on hTLR3 cells (HEK BLUE, QUANTI-Blue OD650); assay type: cell-based; conditions: 24 h, transfection with RNAiMAX, maximum concentration 200 nM, read-out: EC50
T1 construct: host or cells: HEK BLUE hTLR3 (HEK293-derived SEAP reporter line)
T1 sequence (O15455 24-904): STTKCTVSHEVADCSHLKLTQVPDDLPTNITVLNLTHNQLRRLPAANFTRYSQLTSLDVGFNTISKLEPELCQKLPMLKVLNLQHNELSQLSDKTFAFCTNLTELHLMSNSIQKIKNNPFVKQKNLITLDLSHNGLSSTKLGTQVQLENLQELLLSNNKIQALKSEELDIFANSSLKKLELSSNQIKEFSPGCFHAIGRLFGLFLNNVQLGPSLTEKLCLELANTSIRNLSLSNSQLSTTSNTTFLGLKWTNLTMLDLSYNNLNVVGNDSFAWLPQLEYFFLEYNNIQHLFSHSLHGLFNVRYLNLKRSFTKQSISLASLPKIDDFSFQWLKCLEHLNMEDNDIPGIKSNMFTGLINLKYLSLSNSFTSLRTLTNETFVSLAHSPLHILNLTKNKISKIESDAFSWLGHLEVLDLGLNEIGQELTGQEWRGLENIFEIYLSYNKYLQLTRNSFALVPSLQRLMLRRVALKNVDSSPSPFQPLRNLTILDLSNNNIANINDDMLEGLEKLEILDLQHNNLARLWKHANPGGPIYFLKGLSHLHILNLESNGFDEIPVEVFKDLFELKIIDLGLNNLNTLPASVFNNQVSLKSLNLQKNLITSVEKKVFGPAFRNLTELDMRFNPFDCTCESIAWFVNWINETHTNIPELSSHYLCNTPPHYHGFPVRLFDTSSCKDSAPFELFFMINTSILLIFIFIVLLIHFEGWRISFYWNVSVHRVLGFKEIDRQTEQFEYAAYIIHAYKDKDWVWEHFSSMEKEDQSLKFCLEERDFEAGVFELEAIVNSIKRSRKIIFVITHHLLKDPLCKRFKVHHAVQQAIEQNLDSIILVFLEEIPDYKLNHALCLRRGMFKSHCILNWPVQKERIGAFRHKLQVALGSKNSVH
Experimental: as §1, §2
10 μL of 0.5 μM BLOCK-iT™ Alexa Fluor® Red Fluorescent Control was added into 2 transfection positive control wells.
as §3, §4
7) Compound activity detection: 20 μL of cell supernatant was taken from each well and added into an experimental plate containing 180 μL of QUANTI-Blue™ reagent and then incubated for 1 h at 37° C., followed by detecting an absorbance values at 650 nm (OD650) using the multifunctional microplate reader Flexstation III.
as §6

[4] = tested on: AGT mRNA; test: Mouse hAGT HDI model (liver AGT mRNA); assay type: in vivo; conditions: 5 mg/kg single s.c. dose, liver on Day 4; for AGT mRNA expression of mouse liver after administration/before administration, Average: group average (4 mice); for AGT mRNA expression of mouse liver after administration/before administration: individual animal, 5 mg/kg
Experimental: The targeting of a target gene in a sample to be tested and the inhibitory effect on the target gene were evaluated by a mouse model injected with pcDNA-CMV-AGT plasmids via tail vein at high pressure.
pcDNA-CMV-AGT plasmids, BALB/c female mice, DPBS (Dulbecco's phosphate buffer solution), and a conjugate of the present invention.
6 to 8-week-old BALB/c female mice were purchased, and the mice were adapted to quarantine for one week after arriving at an animal room.
On Day 0, the mice were divided into groups at random according to weight data, with 4 mice in each group, all the mice were dosed subcutaneously after grouping, with a single dose at 10 mL/kg. The mice in group 1 were dosed with DPBS; the mice in group 2 were dosed with AD-85481 at the dose of 5 mg/kg; the mice in group 3 were dosed with the conjugate 3 of the present invention at the dose of 5 mg/kg; the group 4 was dosed with the conjugate 2 of the present invention at the dose of 5 mg/kg.
On Day 3 after administration, all the mice were injected with the pcDNA-CMV-AGT plasmids at a volume of 8% of their weight via the tail vein within 5 s (injection volume (mL)=mouse weight (g)×8%). The mass of the plasmids injected into each mouse was 10 μg.
On Day 4 after administration, all groups of mice were euthanized by CO2 inhalation, and 2 liver samples were collected from each mouse. The liver samples were treated with RNAlater at 4° C. overnight, then RNAlater was removed, and subsequently the samples without RNAlater were stored at −80° C. for detecting the expression level of AGT genes.
4. In the table, the data represent AGT mRNA expression of mouse liver after administration/AGT mRNA expression of mouse liver before administration, […]

Row | Substance | CC50 [1] [nM] | CC50 [2] [nM] | EC50 [3] [nM] | AGT mRNA expression of mouse liver after administration/before administration, Average [4] [%] | AGT mRNA expression of mouse liver after administration/before administration [4]
1 | Conjugate 2: Double-stranded RNAi analog against AGT, D01 GalNAc ligand on sense strand; sense SEQ ID NO: 6, antisense SEQ ID NO: 2 containing Z (sense mA*mU*fCfCmAfCfAfAmUmGmAmGmAfGmUmAmCmA-{D01}; antisense CUCACAUGUACNCUCAUUGUGGAUGACGA; antisense: chemistry not given here; antisense strand modified, includes nucleotide analog Z, further chemistry not fully specified) | > 200 | > 200 | > 200 | 3 | 2% (2×) and 3% and 4%
2 | Conjugate 3: Double-stranded RNAi analog against AGT, D01 GalNAc ligand on sense strand; sense SEQ ID NO: 7, antisense SEQ ID NO: 2 containing Z (sense mA*mU*fCfCmAfCfAfAmUmGmAfGmAmGmUmAmCmA-{D01}; antisense CUCACAUGUACNCUCAUUGUGGAUGACGA; antisense: chemistry not given here; antisense strand modified, includes nucleotide analog Z, further chemistry not fully specified) | > 200 | > 200 | > 200 | 3 | 3% (2×) and 2% (2×)
